Values after ≈ are worked out from the molar mass of the structure shown. Read-outs that look alike come from different tables or passages of the source.
Key:
Stability (storage) = type: physicochemical
[1] = test system: Escherichia coli NIHJ JC 2; experiment: Antibacterial activity in vitro, agar plate dilution method (MIC); type: cell-based; settings: NIHJJC2, 37° C., 20 hours, Mueller Hinton agar
Description: (§1) Antibacterial activity in vitro was determined in accordance with the agar plate dilution method.
(§2) A platinum loop each of test bacteria (10^6 cells/ml), cultured in Mueller Hinton broth, was inoculated on Mueller Hinton agar plates which contained test compounds at various concentrations. After cultivating at 37° C. for 20 hours, the minimum inhibitory concentration (MIC μg/ml) was determined.

[2] = test system: Klebsiella pneumoniae IFO 3317; experiment: as above; type: cell-based
Description: as §1, §2

[3] = test system: Proteus morganii IFO 3848; experiment: as above; type: cell-based; settings: Morganella morganii
Description: as §1, §2

[4] = test system: Pseudomonas aeruginosa 13; experiment: as above; type: cell-based
Description: as §1, §2

[5] = test system: Serratia marcescens IFO 3759; experiment: as above; type: cell-based
Description: as §1, §2

[6] = test system: Staphylococcus aureus Smith; experiment: as above; type: cell-based; settings: 37° C., 20 hours, Mueller Hinton agar
Description: as §1, §2

Escherichia coli 67 = experiment: Protection against systemic infection in mice; type: in vivo, ICR mice; settings: iv, 168 h, i.p. infection, i.v. compound 1 hour after infection, survival at 1 week
Description: (§3) Protection ability against systemic infection was determined as follows. An aqueous suspension of test bacteria was intraperitoneally injected into 10 four week old ICR mice. One hour after the infection, test compounds were intravenously administered. The number of surviving mice was counted 1 week after injection to determine the dose at which 50% of the test animals were alive (ED50 : mg/kg).

[7] = test system: Klebsiella pneumoniae IFO 3317; experiment: Protection against systemic infection in mice; type: in vivo, ICR mice; settings: for ED50: IFO3317, iv, 168 h
Description: as §3

[8] = test system: Proteus mirabilis IFO 3849; experiment: Protection against systemic infection in mice; type: in vivo, ICR mice; settings: IFO3849, iv, 168 h
Description: as §3

[9] = test system: Pseudomonas aeruginosa 13; experiment: Protection against systemic infection in mice; type: in vivo, ICR mice; settings: for ED50: 168 h
Description: as §3

Serratia marcescens 274 = experiment: Protection against systemic infection in mice; type: in vivo, ICR mice; settings: 168 h
Description: as §3

[10] = test system: Staphylococcus aureus 242; experiment: Protection against systemic infection in mice; type: in vivo, ICR mice; settings: 168 h
Description: as §3

Solubility = type: physicochemical; settings: trisodium salt, amorphous solid; for parenteral use
[11] = Acute toxicity, LD50 by the Probit method; settings: in vivo, iv
Description: Next, LD50 of representative examples of the compounds of the present invention is shown in Table 3 herein LD50 was determined in accordance with the Probit method.

[12] = test system: bacterial strains except Pseudomonas aeruginosa; experiment: Antibacterial activity in vitro, agar plate dilution method, all strains except Pseudomonas aeruginosa; type: cell-based; settings: Tables 1-a through 1-b
Description: as §1, §2

experimental infection = experiment: Protection of animals from experimental infection (overall); type: in vivo, ICR mice; settings: Tables 2-a through 2-b, vs reference compound
Description: as §3

[13] = IFO3317, Klebsiella pneumoniae IFO 3317, 37° C., 20 hours, Mueller Hinton agar, read-out: MIC
[14] = IFO3848, Proteus morganii IFO 3848, 37° C., 20 hours, Mueller Hinton agar, read-out: MIC
[15] = Pseudomonas aeruginosa 13, 37° C., 20 hours, Mueller Hinton agar, read-out: MIC
[16] = IFO3759, Serratia marcescens IFO 3759, 37° C., 20 hours, Mueller Hinton agar, read-out: MIC
[17] = Klebsiella pneumoniae IFO 3317, i.p. infection, i.v. compound 1 hour after infection, survival at 1 week, read-out: ED50
[18] = Proteus mirabilis IFO 3849, i.p. infection, i.v. compound 1 hour after infection, survival at 1 week, read-out: ED50
[19] = iv, Pseudomonas aeruginosa 13, i.p. infection, i.v. compound 1 hour after infection, survival at 1 week, read-out: ED50
[20] = iv, Serratia marcescens 274, i.p. infection, i.v. compound 1 hour after infection, survival at 1 week, read-out: ED50
[21] = iv, Staphylococcus aureus 242, i.p. infection, i.v. compound 1 hour after infection, survival at 1 week, read-out: ED50

| Structure (SMILES) | MIC [1] | MIC [2, 13] | MIC [3, 14] | MIC [4, 15] | MIC [5, 16] | MIC [6] | ED50 (Escherichia coli 67) | ED50 [7, 17] | ED50 [8, 18] | ED50 [9, 19] | ED50 (Serratia marcescens 274; [20]) | ED50 [10, 21] | LD50 [11] | other results |
| --- | --- | --- | --- | --- | --- | --- | --- | --- | --- | --- | --- | --- | --- | --- |
| Cc1cc(SCC2=C(C(=O)O)N3C(=O)[C@@H](NC(=O)/C(=N\OCc4cc(O)c(O)cc4C(=O)O)c4csc(N)n4)[C@H]3SC2)n2nc(C(=O)O)nc2n1 [crystalline hydrated compound, crystalline hydrated (6R,7R)-7-[2-(2-amino-4-thiazol-yl)-2-[Z-[(2-carboxy-4,5-dihydroxyphenyl)methyl]oxyimino]acetamido]-3-[(2-carboxy-5-methyl-s-triazolo[1,5-a]pyrimidin-7-yl)thiomethyl]-8-oxo-5-thia-1-azabicyclo[4.2.0]oct-2-ene-2-carboxylic acid] |  |  |  |  |  |  |  |  |  |  |  |  |  | stability on storage (Stability (storage); crystalline hydrate): increased stability on storage |
| CC(=O)Oc1cc(C(=O)O)c(CO/N=C(\C(=O)N[C@@H]2C(=O)N3C(C(=O)O)=C(CSc4cc(C)nc5nc(C(=O)O)nn45)CS[C@H]23)c2csc(N)n2)cc1O [Reference compound, (6R,7R)-7-[2-(2-amino-4-thiazolyl)-2-[Z-[(4-acetoxy-2-carboxy-5-hydroxyphenyl)methy]oxyimino]acetamido]-3-[(2-caboxy-5-methyl-s-triazolo[1,5-a]pyrimidin-7-yl)thiomethyl]-8-oxo-5-thia-1-azabicyclo[4.2.0]oct-2-ene-2-carboxylicacid] | 0.39 µg/mL (≈ 0.488 µM) | ≤ 0.05 µg/mL | 0.2 µg/mL (≈ 0.25 µM) | 1.56 µg/mL (≈ 1.95 µM) | ≤ 0.05 µg/mL | 1.56 µg/mL (≈ 1.95 µM) | 7.66 mg/kg | 3.58 mg/kg | 20.1 mg/kg | > 500 mg/kg | 2.56 mg/kg | 12.4 mg/kg |  |  |
| Cc1cc(SCC2=C(C(=O)[O-])N3C(=O)[C@@H](NC(=O)/C(=N\OCc4cc(O)c(O)cc4C(=O)[O-])c4csc(N)n4)[C@H]3SC2)n2nc(C(=O)[O-])nc2n1.[Na+].[Na+].[Na+] |  |  |  |  |  |  |  |  |  |  |  |  |  | solubility (Solubility): excellent solubility; stability (Stability (storage); as bulk materials or as parenteral preparations): not necessarily sufficient |
| Cn1nnnc1SCC1=C(C(=O)O)N2C(=O)[C@@H](NC(=O)[C@H](O)c3ccccc3)[C@H]2SC1 [CMD, Cefamandole] |  |  |  |  |  |  |  |  |  |  |  | 8.94 mg/kg |  |  |
| CC(C)(O/N=C(\C(=O)N[C@@H]1C(=O)N2C(C(=O)[O-])=C(C[n+]3ccccc3)CS[C@H]12)c1csc(N)n1)C(=O)O [CAZ, Ceftazidime] | 0.2 µg/mL (≈ 0.366 µM) |  |  |  |  |  | 6.48 mg/kg |  |  |  |  |  | > 4000 mg/kg | MIC ([2]; Klebsiella pneumoniae, IFO3317, 20 h): ≤ 0.05 µg/mL; MIC ([3]; IFO3848, 20 h): 0.2 µg/mL (≈ 0.366 µM); MIC ([4]; Pseudomonas aeruginosa, 13, 20 h): 1.56 µg/mL (≈ 2.85 µM); MIC ([5]; Serratia marcescens, IFO3759, 20 h): ≤ 0.05 µg/mL; ED50 ([7]; Klebsiella pneumoniae): 10.6 mg/kg; ED50 ([8]; Proteus mirabilis): 4.36 mg/kg; ED50 ([9]; Pseudomonas aeruginosa, 13, iv): 145 mg/kg; ED50 (Serratia marcescens 274; Serratia marcescens, 274, iv): 3.62 mg/kg; ED50 ([10]; Staphylococcus aureus, 242, iv): > 100 mg/kg |
| Cc1cc(SCC2=C(C(=O)O)N3C(=O)[C@@H](NC(=O)/C(=N\OCc4cc(O)c(O)cc4C(=O)O)c4csc(N)n4)[C@H]3SC2)n2nc(C(=O)O)nc2n1 [Compound 1, (6R,7R)-7-[2-(2-amino-4-thiazolyl)-2-[Z-[(2-carboxy-4,5-dihydroxyphenyl)methyl]oxyimino]acetamido]-3-[(2-carboxy-5-methyl-s-triazolo[1,5-a]pyrimidin-7-yl)thiomethyl]-8-oxo-5-thia-1-azabicyclo[4.2.0]-oct-2-ene-2-carboxylic acid] | 0.39 µg/mL (≈ 0.515 µM) | ≤ 0.05 µg/mL | 0.39 µg/mL (≈ 0.515 µM) | 0.1 µg/mL (≈ 0.132 µM) | 0.1 µg/mL (≈ 0.132 µM) | 1.56 µg/mL (≈ 2.06 µM) | 1.05 mg/kg | 0.27 mg/kg | 5.07 mg/kg | 61.8 mg/kg | 0.77 mg/kg | 7.68 mg/kg | > 4000 mg/kg | times as potent as Ceftazidime ([4]; MIC, Pseudomonas aeruginosa, vs Ceftazidime): more than 10 times; times as potent as the reference compound ([4]; MIC, Pseudomonas aeruginosa, vs reference compound): more than 10 times; potency relative to the reference compound in vitro [12]: about equipotent to the reference compound; times as potent as the reference compound ([7]; infection with Klebsiella pneumoniae, vs reference compound): more than 10 times; times as potent as the reference compound ([9]; infection with Pseudomonas aeruginosa, vs reference compound): more than 10 times; potency in protecting the animals from experimental infection relative to the reference compound (experimental infection): evidently more potent than the reference compound |

Source: patent US4866055A, “Cephalosporin derivatives and their crystalline derivatives” (Mochida Pharmaceutical Co., Ltd., priority 1986, dated 1989)
